Peptide text beside a SMILES is read from it. * marks the point of attachment. Carboxymethyl = O=C(O)C*
Each compound was assayed against T1, Growth factor receptor-bound protein 2 (Homo sapiens, UniProt P62993) (assay: Inhibition of Growth factor receptor bound protein 2 SH2 domain binding in ELISA).

| IC50 [µM] | SMILES |
| --- | --- |
| > 100 | NC(=O)C[C@H](NC(=O)C1(NC(=O)[C@H](Cc2ccc(O)c(C(=O)O)c2)NC(=O)C(=O)O)CCCCC1)C(=O)NCCCc1cccc2ccccc12 |
| 50 | NC(=O)C[C@H](NC(=O)C1(NC(=O)[C@H](Cc2ccc(C(=O)O)c(O)c2)NC(=O)C(=O)O)CCCCC1)C(=O)NCCCc1cccc2ccccc12 |

These compounds were tested against T2, Tyrosine-protein phosphatase non-receptor type 1 (Homo sapiens, UniProt P18031) (assay: Tested for binding affinity towards Protein-tyrosine Phosphatase 1B).
T2 sequence (P18031 whole entry): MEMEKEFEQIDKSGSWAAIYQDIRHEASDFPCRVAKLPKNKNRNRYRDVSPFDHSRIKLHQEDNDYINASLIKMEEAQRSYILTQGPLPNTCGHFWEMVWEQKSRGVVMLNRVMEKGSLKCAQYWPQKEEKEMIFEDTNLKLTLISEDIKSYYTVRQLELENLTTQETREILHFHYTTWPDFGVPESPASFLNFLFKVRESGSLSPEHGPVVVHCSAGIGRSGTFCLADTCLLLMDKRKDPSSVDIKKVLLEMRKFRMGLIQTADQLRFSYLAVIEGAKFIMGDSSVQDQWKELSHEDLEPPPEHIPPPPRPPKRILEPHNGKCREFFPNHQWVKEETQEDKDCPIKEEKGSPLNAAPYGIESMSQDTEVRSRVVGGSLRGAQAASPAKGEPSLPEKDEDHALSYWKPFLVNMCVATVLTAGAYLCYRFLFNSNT
Set-up: species or system Rattus norvegicus

| IC50 [µM] | SMILES |
| --- | --- |
| 1200 | CC(=O)N[C@@H](CC(=O)O)C(=O)N[C@@H](C)C(=O)N[C@@H](CC(=O)O)C(=O)N[C@@H](CCC(=O)O)C(=O)N[C@@H](Cc1ccc(OCC(=O)O)cc1)C(=O)N[C@@H](CC(C)C)C(N)=O (Ac-DADEY(Carboxymethyl)L-NH2) |
| 19 | CC(=O)N[C@@H](CC(=O)O)C(=O)N[C@@H](C)C(=O)N[C@@H](CC(=O)O)C(=O)N[C@@H](CCC(=O)O)C(=O)N[C@@H](Cc1ccc(OCC(=O)O)c(C(=O)O)c1)C(=O)N[C@@H](CC(C)C)C(N)=O (HELM PEPTIDE1{[ac].D.A.D.E.[O=C(O)COc1ccc(C[C@H](N[*:1])C(=O)[*:2])cc1C(=O)O].L.[am]}$$$$V2.0) |
| 800 | CC(=O)N[C@@H](CC(=O)O)C(=O)N[C@@H](C)C(=O)N[C@@H](CC(=O)O)C(=O)N[C@@H](CCC(=O)O)C(=O)N[C@@H](Cc1ccc(OCC(=O)O)c(OCC(=O)O)c1)C(=O)N[C@@H](CC(C)C)C(N)=O (HELM PEPTIDE1{[ac].D.A.D.E.[O=C(O)COc1ccc(C[C@H](N[*:1])C(=O)[*:2])cc1OCC(=O)O].L.[am]}$$$$V2.0) |
| 3700 | CC(=O)N[C@@H](CC(=O)O)C(=O)N[C@@H](C)C(=O)N[C@@H](CC(=O)O)C(=O)N[C@@H](CCC(=O)O)C(=O)N[C@@H](Cc1ccc(CC(=O)O)c(C(=O)O)c1)C(=O)N[C@@H](CC(C)C)C(N)=O (HELM PEPTIDE1{[ac].D.A.D.E.[O=C(O)Cc1ccc(C[C@H](N[*:1])C(=O)[*:2])cc1C(=O)O].L.[am]}$$$$V2.0) |
| 13000 | CC(=O)N[C@@H](CC(=O)O)C(=O)N[C@@H](C)C(=O)N[C@@H](CC(=O)O)C(=O)N[C@@H](CCC(=O)O)C(=O)N[C@@H](Cc1ccc(CC(=O)O)c(O)c1)C(=O)N[C@@H](CC(C)C)C(N)=O (HELM PEPTIDE1{[ac].D.A.D.E.[O=C(O)Cc1ccc(C[C@H](N[*:1])C(=O)[*:2])cc1O].L.[am]}$$$$V2.0) |
| 4600 | CC(=O)N[C@@H](CC(=O)O)C(=O)N[C@@H](C)C(=O)N[C@@H](CC(=O)O)C(=O)N[C@@H](CCC(=O)O)C(=O)N[C@@H](Cc1ccc(O)c(C(=O)O)c1)C(=O)N[C@@H](CC(C)C)C(N)=O (HELM PEPTIDE1{[ac].D.A.D.E.[O=C(O)c1cc(C[C@H](N[*:1])C(=O)[*:2])ccc1O].L.[am]}$$$$V2.0) |
| 5300 | CC(=O)N[C@@H](CC(=O)O)C(=O)N[C@@H](C)C(=O)N[C@@H](CC(=O)O)C(=O)N[C@@H](CCC(=O)O)C(=O)N[C@@H](Cc1ccc(C(=O)O)c(O)c1)C(=O)N[C@@H](CC(C)C)C(N)=O (HELM PEPTIDE1{[ac].D.A.D.E.[O=C(O)c1ccc(C[C@H](N[*:1])C(=O)[*:2])cc1O].L.[am]}$$$$V2.0) |

| SMILES | IC50 [µM] |
| --- | --- |
| CC(=O)N[C@@H](CC(=O)O)C(=O)N[C@@H](C)C(=O)N[C@@H](CC(=O)O)C(=O)N[C@@H](CCC(=O)O)C(=O)N[C@@H](Cc1ccc(C(C(=O)O)C(=O)O)cc1)C(=O)N[C@@H](CC(C)C)C(N)=O (HELM PEPTIDE1{[ac].D.A.D.E.[O=C(O)C(C(=O)O)c1ccc(C[C@H](N[*:1])C(=O)[*:2])cc1].L.[am]}$$$$V2.0) | 1500 |
| CC(=O)N[C@@H](CC(=O)O)C(=O)N[C@@H](C)C(=O)N[C@@H](CC(=O)O)C(=O)N[C@@H](CCC(=O)O)C(=O)N[C@@H](Cc1ccc(C(F)(C(=O)O)C(=O)O)cc1)C(=O)N[C@@H](CC(C)C)C(N)=O (HELM PEPTIDE1{[ac].D.A.D.E.[O=C(O)C(F)(C(=O)O)c1ccc(C[C@H](N[*:1])C(=O)[*:2])cc1].L.[am]}$$$$V2.0) | 430 |
| CC(=O)N[C@@H](CC(=O)O)C(=O)N[C@@H](C)C(=O)N[C@@H](CC(=O)O)C(=O)N[C@@H](CCC(=O)O)C(=O)N[C@@H](Cc1ccc(C(F)(F)C(=O)O)cc1)C(=O)N[C@@H](CC(C)C)C(N)=O (HELM PEPTIDE1{[ac].D.A.D.E.[O=C(O)C(F)(F)c1ccc(C[C@H](N[*:1])C(=O)[*:2])cc1].L.[am]}$$$$V2.0) | 650 |
| CC(=O)N[C@@H](CC(=O)O)C(=O)N[C@@H](C)C(=O)N[C@@H](CC(=O)O)C(=O)N[C@@H](CCC(=O)O)C(=O)N[C@@H](Cc1ccc(CC(=O)O)cc1)C(=O)N[C@@H](CC(C)C)C(N)=O (HELM PEPTIDE1{[ac].D.A.D.E.[O=C(O)Cc1ccc(C[C@H](N[*:1])C(=O)[*:2])cc1].L.[am]}$$$$V2.0) | 2500 |
| CC(=O)N[C@@H](CC(=O)O)C(=O)N[C@@H](C)C(=O)N[C@@H](CC(=O)O)C(=O)N[C@@H](CCC(=O)O)C(=O)N[C@@H](Cc1ccc(C(=O)O)cc1)C(=O)N[C@@H](CC(C)C)C(N)=O (HELM PEPTIDE1{[ac].D.A.D.E.[O=C(O)c1ccc(C[C@H](N[*:1])C(=O)[*:2])cc1].L.[am]}$$$$V2.0) | 4400 |
| CC(=O)N[C@@H](CC(=O)O)C(=O)N[C@@H](C)C(=O)N[C@@H](CC(=O)O)C(=O)N[C@@H](CCC(=O)O)C(=O)N[C@@H](Cc1ccc(OP(=O)(O)O)cc1)C(=O)N[C@@H](CC(C)C)C(N)=O (HELM PEPTIDE1{[ac].D.A.D.E.[O=C([C@H](Cc1ccc(OP(=O)(O)O)cc1)N[*:1])[*:2]].L.[am]}$$$$V2.0) | 3.2 |

The compounds below were run against T1, Growth factor receptor-bound protein 2 (assay: Inhibition of Growth factor receptor bound protein 2 SH2 domain binding in plasmon resonance assay).

| IC50 [µM] | SMILES |
| --- | --- |
| 2 | NC(=O)C[C@H](NC(=O)C1(NC(=O)[C@H](Cc2ccc(C(F)(F)C(=O)O)cc2)NC(=O)C(=O)O)CCCCC1)C(=O)NCCCc1cccc2ccccc12 |
| 15 | NC(=O)C[C@H](NC(=O)C1(NC(=O)[C@H](Cc2ccc(OCC(=O)O)cc2)NC(=O)C(=O)O)CCCCC1)C(=O)NCCCc1cccc2ccccc12 |
| 0.6 | NC(=O)C[C@H](NC(=O)C1(NC(=O)[C@H](Cc2ccc(CC(=O)O)cc2)NC(=O)C(=O)O)CCCCC1)C(=O)NCCCc1cccc2ccccc12 |
| > 100 | NC(=O)C[C@H](NC(=O)C1(NC(=O)[C@H](Cc2ccc(OCC(=O)O)c(OCC(=O)O)c2)NC(=O)C(=O)O)CCCCC1)C(=O)NCCCc1cccc2ccccc12 |
